According to PMC12259270, “Sensory neuron–expressed FGF13 controls nociceptive signaling in diabetic neuropathy models” (The Journal of Clinical Investigation, 2025):
Where “and” joins values, the source holds several entries; their conditions need not be identical. Equal entries are not always repeated. Residues, ends and D or L forms follow the SMILES beside them. *: point of attachment. Cbz = O=C(OCc1ccccc1)*; NHPh = c1ccc(N*)cc1; OtBu = CC(C)(C)O*

Target: T1, FGF13/Nav1.7 CTD complex (Homo sapiens, UniProt Q92913)
T1 construct: Full-length FGF13-1b (aa 1-192) was subcloned into appropriate plasmids; Nav1.7 residues 1780-1977; expressed in transfected cells; host or cells: HEK293 (inferred; the LCA paragraph only says 'cells')
T1 sequence (Q92913 1-192 isoform Q92913-2): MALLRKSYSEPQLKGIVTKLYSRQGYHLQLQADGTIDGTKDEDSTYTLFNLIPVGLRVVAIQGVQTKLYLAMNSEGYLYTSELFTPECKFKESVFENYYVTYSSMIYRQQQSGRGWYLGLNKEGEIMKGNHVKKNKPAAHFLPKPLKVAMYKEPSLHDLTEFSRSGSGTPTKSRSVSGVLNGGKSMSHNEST
Assay: Split-luciferase complementation assay (LCA), CLuc-FGF13/CD4-Nav1.7-CTD-NLuc
Type: cell-based
Parameters: key to LCA dose response, Mean (Figure 1B): % of mean signal of per-plate 0.5% DMSO control wells
Conditions: for Percentage luminescence, Mean: Fig 1B dose response; for Luminescence signal over time, mean: FGF13, PW164
From the text: The respective gene ID numbers used in this study are as follows: NM_033642 (human, FGF13-1b) and NM_002977 (human SCN9A). Full-length FGF13-1b (aa 1-192) was subcloned into appropriate plasmids for use in this investigation, unless otherwise noted. For consistency with AlphaFold modeling presented, numbering of point mutations to FGF13-1b are based on the longest FGF13 isoform (FGF13-1a, NM_004114.2). CLuc-FGF13, […]
and constructs expressing the CLuc or the NLuc fragments of Firefly ( Photinus pyralis) luciferase (24) respectively were engineered, mutated (CLuc-FGF13R110A) and sequenced at the Molecular Genomics Core (University of Texas Medical Branch). The CD4 -Nav1.7-CTD-NLuc cassette was synthesized from GeneArt (Nav1.7 residues 1780-1977) (ThermoFisher) and subcloned at 5'-HindIII and 3’-BsiWi restriction sites in pcDNA3.1 (Invitrogen). Additionally, FGF13 was amplified with polymerase chain reaction (PCR) by using gene-specific primers, and subcloned in pcDNA3.1 at 5’ -BsiWi and 3’-Not I restriction sites. […]
Cell Culture and transfections
HEK293 cells were purchased from ATCC (catalog # CRL-1573). Cells were cultured and incubated at 37 °C with 5% CO2 in medium with equal volumes of Dulbecco modified essential medium (DMEM) and F12 […]
Split-luciferase Complementation Assay (LCA)
Twenty-four hours post transfection, cells were trypsinized using TrypLE (Gibco; cat # 12604013), centrifuged at 1750 rpm for 5 min, triturated in medium, and seeded into white clear-bottom 96-well CELLSTAR µClear® plates (Greiner Bio -One; cat # 655073 ) at ~0.8 x 10^5 cells per well in 200 µl of medium. The cells were incubated for another 24 hours, and then the growth medium was replaced with 100 µl serum -free, phenol red -free DMEM/F-12 medium (Invitrogen). All compounds from the PW - and the ZL-series, including PW164 and ZL192, were dissolved in DMSO, added to a final concentration of 1 –500 μM (0.5 % DMSO) in the serum -free medium and then cells were incubated for two hours. The bioluminescence reaction was initiated by injection of 100 μl of D -luciferin substrate (1.5 mg/ml dissolved in PBS) using a Synergy H4 multimode microplate reader (BioTek). Luminescence readings were initiated after 3 s of mild plate shaking and performed at 2 min intervals for 20-30 min with integration times of 0.5 s, and the c ells were maintained throughout the measurements at 37 °C. Raw signal intensity was computed by averaging peak luminescence plus two adjacent time points.
Normalized signal intensity was expressed as the percentage of mean signal intensity relative to per plate control wells treated with 0.5% DMSO. […]
The FGF13 was immobilized to the final 1 0050 RU, and Nav1.7 to the 10 or 1000 RU, and no protein was coupled to the control channel of the chip. For each compound, stock solution (50 mM) was serially diluted from 300 to 1 µM; the Nav1.7 -CTD peptide (1876 -1899, 23 amino acids, MW ~2.8 kDa) was se rially diluted from 150 to 1 nM in PBS-P+ (PBS supplemented 0.005% with tween 20). Samples were injected over the chip for 60 s followed by dissociation for 120 s at the flow rate 40 µl/min; finally, the chip was regenerated using the solution of 1.5 M NaCl, 3% DMSO for 180 s. The interaction of compound or un-conjugated Nav1.7 -CTD peptide with FGF13, as […]

COC(=O)[C@@H](NC(=O)[C@H](CCC(=O)OC(C)(C)C)NC(=O)[C@H](CC(C)C)NC(=O)[C@@H]1CCCN1C(=O)OCc1ccccc1)C(C)C [PW164] (Cbz-PLE(OtBu)V-OMe)
LCA screening of the PW-series compounds against the FGF13/Nav1.7 complex (Fig. S2C) (50 μM, individual replicates, vehicle about 100): 52.9829 and 54.4974 and 52.792 and 43.8067 and 53.8102 and 54.3574 and 65.3028 and 53.9247
Percentage luminescence, Mean (Log (conc(M)) -3.6): 36.225%
Percentage luminescence, Mean (Log (conc(M)) -3.82): 36.175%
Percentage luminescence, Mean (Log (conc(M)) -4): 36.8%
Percentage luminescence, Mean (Log (conc(M)) -4.12): 37.575%
Percentage luminescence, Mean (Log (conc(M)) -4.22): 41.95%
Percentage luminescence, Mean (Log (conc(M)) -4.3): 49.1%
Percentage luminescence, Mean (Log (conc(M)) -4.4): 55.95%
Percentage luminescence, Mean (Log (conc(M)) -4.6): 72.975%
Percentage luminescence, Mean (Log (conc(M)) -4.7): 78.7625%
Percentage luminescence, Mean (Log (conc(M)) -4.82): 95.2%
Percentage luminescence, Mean (Log (conc(M)) -5): 102.25%
Percentage luminescence, Mean (Log (conc(M)) -5.5): 98.45%
Percentage luminescence, Mean (Log (conc(M)) -6): 97.8125%
Luminescence signal over time, mean (Fig 1B, Time 0): 229.9
Luminescence signal over time, mean (Fig 1B, Time 5): 547.2
Luminescence signal over time, mean (Fig 1B, Time 10): 954.8
Luminescence signal over time, mean (Fig 1B, Time 15): 1153.7
Percentage luminescence, single replicates (Fig 1B, FGF13, PW164 (20 μM)): 42.7306% and 39.5799% and 34.1155% and 47.555% and 46.8165% and 80.4398% and 35.0509% and 53.5117% and 52.6748% and 30.1772% and 36.3308%
LCA analysis of FGF13/Nav1.7 (Figure 8D, WT PW164, replicate values beside WT DMSO): 48.4338 and 51.009 and 48.3348 and 45.8586 and 44.3729 and 45.9577 and 44.0758 and 49.7469 and 51.824 and 46.8389 and 47.9813
IC50 (LCA dose response, Fig 1B, read-out: IC50, inhibition of FGF13/Nav1.7 complex assembly): 29 ± 5 µM

CC(=O)N[C@@H](Cc1ccccc1)C(=O)N[C@@H](CC(C)C)C(=O)N1CCC[C@H]1C(=O)N[C@@H](CCCCN)C(=O)Nc1ccccc1 [ZL192] (Ac-FLPK-NHPh)
LCA signal, FGF13 (Figure 1B), individual replicates (FGF13, ZL192 vs Vehicle): 148.142 and 186.697 and 151.094 and 172.833 and 154.782 and 172.987 and 159.506 and 193.88 and 161.695 and 170.692 and 150.24 and 163.294
EC50 (LCA dose-response, Fig 4B, read-out: EC50, increase of FGF13/Nav1.7 complex assembly): 28 ± 5 µM
LCA dose response, Mean (Figure 1B) (Log (conc(M)) -3.6): 132.85
LCA dose response, Mean (Figure 1B) (Log (conc(M)) -3.82): 139.626
LCA dose response, Mean (Figure 1B) (Log (conc(M)) -4): 140.168
LCA dose response, Mean (Figure 1B) (Log (conc(M)) -4.12): 146.164
LCA dose response, Mean (Figure 1B) (Log (conc(M)) -4.22): 133.106
LCA dose response, Mean (Figure 1B) (Log (conc(M)) -4.3): 141.107
LCA dose response, Mean (Figure 1B) (Log (conc(M)) -4.4): 130.374
LCA dose response, Mean (Figure 1B) (Log (conc(M)) -4.6): 116.119
LCA dose response, Mean (Figure 1B) (Log (conc(M)) -4.7): 109.491
LCA dose response, Mean (Figure 1B) (Log (conc(M)) -4.82): 110.318
LCA dose response, Mean (Figure 1B) (Log (conc(M)) -5): 102.555
LCA dose response, Mean (Figure 1B) (Log (conc(M)) -5.5): 100.737
LCA dose response, Mean (Figure 1B) (Log (conc(M)) -6): 101.723
